Experimental data reported in patent publication US20260070922A1, “PYRAZOLE AND IMIDAZOLE DERIVATIVES AS DUAL OREXIN AND KAPPA-OPIOID RECEPTORS MODULATORS COMPOSITION, METHODS FOR TREATING NEUROLOGICAL AND PSYCHIATRIC DISORDERS” (HAGER BIOSCIENCES, LLC, priority 2022, published 2026).

How the values were obtained:
[1] = target: T1, Orexin type 1 (OX1R) receptor (Homo sapiens, UniProt O43613); assay: In vitro orexin antagonism assay: intracellular calcium measurement (FLIPR), orexin-A 3 nM as agonist; assay type: cell-based; conditions: for IC50: first value of IC50/Kb cell; for inhibition at 1 µM: read-out: OX1R, % Inh. @ 1 uM; for Kb: second value of IC50/Kb cell
T1 construct: expressed in transfected cells; host or cells: CHO cells (G418 selection)
T1 sequence (O43613 1-425): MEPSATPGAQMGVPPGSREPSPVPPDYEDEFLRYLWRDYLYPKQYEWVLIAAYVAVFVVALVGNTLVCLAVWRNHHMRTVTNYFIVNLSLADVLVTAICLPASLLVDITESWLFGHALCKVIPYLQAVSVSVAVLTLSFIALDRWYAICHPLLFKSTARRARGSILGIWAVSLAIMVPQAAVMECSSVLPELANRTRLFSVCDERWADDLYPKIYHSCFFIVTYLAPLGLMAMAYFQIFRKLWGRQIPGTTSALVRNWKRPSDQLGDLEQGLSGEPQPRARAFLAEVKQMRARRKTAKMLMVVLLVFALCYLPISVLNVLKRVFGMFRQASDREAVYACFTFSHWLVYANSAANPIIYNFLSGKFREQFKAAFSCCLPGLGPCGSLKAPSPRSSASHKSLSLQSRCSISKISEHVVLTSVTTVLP
In short: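 CHO cells expressing the human orexin receptor were loaded with 3 μM fluo-4 AM plus 5 mM probenecid, then exposed to antagonist for 120 min before 3 nM orexin-A (final) was added on a FLIPR.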

[2] = target: T2, human k-opioid receptor (kOR) (Homo sapiens, UniProt P41145); assay: Human k-opioid (KOP) receptor (agonist radioligand [3H]U-69593) binding assay, transfected RBL cell membranes; conditions: for IC50: first value of IC50/Ki cell; for inhibition at 1 µM: read-out: KOR % Inh. @ 1 uM
T2 construct: expressed in transfected cells; host or cells: RBL cells (membrane homogenates)
In short: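 Membranes from transfected RBL cells (~80 μg protein) incubated 60 min at 22° C with 0.5 nM [3H]U-69593 in 50 mM Tris-HCl pH 7.4, 10 mM MgCl2, 1 mM EDTA. Nonspecific binding defined with 10 μM naloxone; filtration and scintillation counting. Values are percent inhibition of specific radioligand binding.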

[3] = target: T2, human k-opioid receptor (kOR); assay: as above; conditions: second value of IC50/Ki cell
[4] = target: T3, human orexin-2 receptor (OX2R) (Homo sapiens, UniProt O43614); assay: In vitro orexin antagonism assay: intracellular calcium measurement (FLIPR), orexin-A 3 nM as agonist; assay type: cell-based; conditions: for IC50: first value of IC50/Kb cell; for inhibition at 1 µM: read-out: OX2R, % Inh. @ 1 uM; for Kb: second value of IC50/Kb cell
T3 construct: expressed in transfected cells; host or cells: CHO cells (G418 selection)
T3 sequence (O43614 1-444): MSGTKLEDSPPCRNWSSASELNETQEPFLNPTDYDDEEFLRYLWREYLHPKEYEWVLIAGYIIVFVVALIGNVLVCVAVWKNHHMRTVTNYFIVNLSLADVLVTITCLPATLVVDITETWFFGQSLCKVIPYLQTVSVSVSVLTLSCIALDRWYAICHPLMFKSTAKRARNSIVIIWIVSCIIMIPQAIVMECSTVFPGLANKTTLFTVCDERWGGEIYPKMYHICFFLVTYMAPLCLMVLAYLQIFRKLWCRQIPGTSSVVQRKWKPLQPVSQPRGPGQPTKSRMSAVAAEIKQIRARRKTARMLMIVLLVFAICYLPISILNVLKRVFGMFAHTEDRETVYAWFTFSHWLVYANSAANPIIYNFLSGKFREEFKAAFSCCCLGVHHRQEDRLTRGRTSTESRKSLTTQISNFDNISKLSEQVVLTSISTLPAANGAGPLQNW
In short: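 CHO cells stably expressing human OX1R or OX2R, loaded with fluo-4 AM (3 μM, 5 mM probenecid) for 50 min at 37 °C, then 30 min at RT. Antagonist preincubated 120 min before 3 nM orexin-A; FLIPR fluorescence peak height vs vehicle gives IC50, possibly normalized to on-plate reference; geometric mean of repeats.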

T2 sequence (P41145 whole entry): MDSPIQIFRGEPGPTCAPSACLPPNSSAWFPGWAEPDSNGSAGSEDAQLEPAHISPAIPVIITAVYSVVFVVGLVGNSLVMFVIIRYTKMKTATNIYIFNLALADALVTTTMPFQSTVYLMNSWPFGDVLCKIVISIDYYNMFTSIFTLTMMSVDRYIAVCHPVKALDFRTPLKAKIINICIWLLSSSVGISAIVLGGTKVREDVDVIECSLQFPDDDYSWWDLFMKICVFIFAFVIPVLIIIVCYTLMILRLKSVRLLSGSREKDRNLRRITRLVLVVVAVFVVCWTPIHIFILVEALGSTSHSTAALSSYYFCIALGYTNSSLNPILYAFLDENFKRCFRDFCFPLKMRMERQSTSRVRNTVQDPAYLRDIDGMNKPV

**Q.** What does the source list for O=C(c1c(-c2ccccc2)nc2ccc(F)cn12)N1CCC[C@H]1Cn1cc(-c2ccccc2)cn1 [Example 75]?
**A.** IC50 [1]: 160 nM; inhibition at 1 µM [1]: 93%; Kb [1]: 33 nM; IC50 [2]: 140 nM; inhibition at 1 µM [2]: 86%; Ki [3]: 77 nM; IC50 [4]: 160 nM; inhibition at 1 µM [4]: 76%; Kb [4]: 28 nM

**Q.** What does the source list for O=C(c1c(-c2ccccc2)nc2cc(C(F)(F)F)ccn12)N1CCC[C@H]1Cn1cc(-c2ccccc2)cn1 [Example 80]?
**A.** IC50 [1]: 190 nM; inhibition at 1 µM [1]: 87%; Kb [1]: 40 nM; IC50 [2]: 46 nM; inhibition at 1 µM [2]: 95%; Ki [3]: 25 nM; IC50 [4]: 79 nM; inhibition at 1 µM [4]: 78%; Kb [4]: 14 nM

**Q.** How did the IC50 [1] turn out when O=C(c1c(-c2ccccc2)nc2ccc(F)cn12)N1CCC[C@H]1Cn1ccc(-c2ccc(F)cn2)n1 [Example 92] was run?
**A.** 250 nM

**Q.** What about the inhibition at 1 µM [1] of the same molecule?
**A.** 75%

**Q.** What about the Kb [1] of the same molecule?
**A.** 52 nM

**Q.** And the IC50 [2]?
**A.** 170 nM

**Q.** What about the inhibition at 1 µM [2] of the same molecule?
**A.** 79%

**Q.** And the Ki [3]?
**A.** 94 nM

**Q.** And the IC50 [4]?
**A.** 930 nM

**Q.** What about the inhibition at 1 µM [4] of the same molecule?
**A.** 61%

**Q.** What about the Kb [4] of the same molecule?
**A.** 160 nM

**Q.** For O=C(c1c(-c2ccccc2)nc2cc(C(F)(F)F)ccn12)N1CCC[C@H]1Cn1ccc(-c2ccc(F)cn2)n1 [Example 94], which IC50 [1] is on record?
**A.** 37 nM

**Q.** What about the inhibition at 1 µM [1] of the same molecule?
**A.** 88%

**Q.** And the Kb [1]?
**A.** 8 nM

**Q.** What about the IC50 [2] of the same molecule?
**A.** 210 nM

**Q.** And the inhibition at 1 µM [2]?
**A.** 74%

**Q.** And the Ki [3]?
**A.** 120 nM

**Q.** And the IC50 [4]?
**A.** 36 nM

**Q.** What about the inhibition at 1 µM [4] of the same molecule?
**A.** 76%

**Q.** What about the Kb [4] of the same molecule?
**A.** 6 nM

**Q.** What does the source list for O=C(c1c(-c2ccccc2F)nn2ccccc12)N1[C@H](Cn2ccc(-c3ccc(F)cc3)n2)C[C@@H]2C[C@@H]21 [Example 95]?
**A.** IC50 [1]: 95 nM; inhibition at 1 µM [1]: 91%; Kb [1]: 20 nM; IC50 [2]: 180 nM; inhibition at 1 µM [2]: 87%; Ki [3]: 99 nM; inhibition at 1 µM [4]: 50%

**Q.** Which results are given for O=C(c1c(-c2ccccc2)nc2ccc(F)cn12)N1[C@H](Cn2ccc(-c3ccc(F)cc3)n2)C[C@@H]2C[C@@H]21 [Example 97]?
**A.** IC50 [1]: 160 nM; inhibition at 1 µM [1]: 70%; Kb [1]: 33 nM; IC50 [2]: 80 nM; inhibition at 1 µM [2]: 91%; Ki [3]: 44 nM; inhibition at 1 µM [4]: 37%

**Q.** Which IC50 [1] does the source give for O=C(c1c(-c2ccccc2F)nn2ccccc12)N1[C@H](Cn2ccc(-c3ccc(F)cn3)n2)C[C@@H]2C[C@@H]21 [Example 107] here?
**A.** 83 nM

**Q.** What about the inhibition at 1 µM [1] of the same molecule?
**A.** 92%

**Q.** What about the Kb [1] of the same molecule?
**A.** 18 nM

**Q.** What about the IC50 [2] of the same molecule?
**A.** 910 nM

**Q.** And the inhibition at 1 µM [2]?
**A.** 61%

**Q.** What about the Ki [3] of the same molecule?
**A.** 500 nM

**Q.** And the IC50 [4]?
**A.** 520 nM

**Q.** And the inhibition at 1 µM [4]?
**A.** 55%

**Q.** And the Kb [4]?
**A.** 90 nM

**Q.** Which results are given for O=C(c1nn2ccccc2c1-c1ccccc1)N1CCC[C@H]1Cn1cc(-c2ccc(F)cn2)cn1 [Example 112]?
**A.** IC50 [1]: 4 nM; inhibition at 1 µM [1]: 100%; Kb [1]: 0.8 nM; IC50 [2]: 720 nM; inhibition at 1 µM [2]: 70%; Ki [3]: 390 nM; IC50 [4]: 15 nM; inhibition at 1 µM [4]: 86%; Kb [4]: 3 nM

**Q.** Which results are given for [2H]C1([2H])CC[C@@]([2H])(Cn2ccc(-c3ccc(F)cc3)n2)N1C(=O)c1c(-c2ccccc2)nc2ccc(F)cn12 [Example 177]?
**A.** IC50 [1]: 20 nM; inhibition at 1 µM [1]: 95%; Kb [1]: 4 nM; IC50 [2]: 90 nM; inhibition at 1 µM [2]: 91%; Ki [3]: 49 nM; IC50 [4]: 371 nM; inhibition at 1 µM [4]: 85%; Kb [4]: 64 nM
